Reference: publication PMC12431657, “Discovery and mechanistic insights of dibenzoylmethane as a broad spectrum inhibitor of coronavirus” (PLOS Pathogens, 2025)

Tests used:
HCoV-229E = tested on: HCoV-229E; design: species or system Huh-7; HTS, protection from HCoV-229E induced cell death, luminescent cell viability (CellCounting-Lite 2.0), inhibition rate; conditions: 24 h, 10 µM; inhibitor
HCoV-OC43 = tested on: HCoV-OC43; design: species or system RD; HTS, protection from HCoV-OC43 induced cell death, luminescent cell viability (CellCounting-Lite 2.0), inhibition rate; conditions: 24 h, 10 µM; inhibitor
Huh-7 cells = test: Cytotoxicity assay (CCK-8), Huh-7 cells

Structure (SMILES) | 229E Inhibition rate (HCoV-229E) | OC43 Inhibition rate (HCoV-OC43) | selectivity index (SI) (Huh-7 cells)
CC(C)C1=CC(=O)[C@@](C)([C@H]2[C@H](O)C[C@@]3(C)[C@@H]4CC=C5[C@@H](CC[C@@H](O[C@@H]6OC[C@@H](O)[C@H](O)[C@H]6O[C@@H]6O[C@@H](C)[C@H](O)[C@@H](O)[C@H]6O)C5(C)C)[C@]4(C)C(=O)C[C@]23C)O1 [Picfeltarraenin IA] | 0% | -0.3% | –
COc1c2c3c4c(c(OC)c(=O)c5c(O)cc(OC)c(c6c(OC)cc(O)c(c1=O)c63)c54)[C@@H](C(C)=O)[C@@](C)(O)C2 [Hypocrellin A] | 4.6% | -1.7% | –
COc1cc2c(c(OC)c1OC)-c1ccc(OC)c(=O)cc1[C@@H](NC(C)=O)CC2 [Colchicine] | 13.9 | -3.5 | –
CCCCc1ccc(C(=O)O)nc1 [Fusaric acid] | 12.7% | 0.1% | –
CN1CCc2cc3c(cc2[C@H]1[C@@H]1OC(=O)c2c1ccc1c2OCO1)OCO3 [Bicuculline] | 0% | -0.3% | –
CCc1c(Cl)c(O)c(Cl)c(O)c1C(=O)O[C@H]1[C@H](O)[C@H](OC)[C@H](OC/C2=C\C=C\C[C@H](O)/C(C)=C/[C@H](CC)[C@@H](O[C@@H]3OC(C)(C)[C@@H](OC(=O)C(C)C)[C@H](O)[C@@H]3O)/C(C)=C/C(C)=C/C[C@@H]([C@@H](C)O)OC2=O)O[C@@H]1C [Fidaxomicin] | 27.3 | 15 | –
N[C@H](C(=O)O)c1cc(O)no1 [Ibotenic acid] | 11.4% | 3.8% | –
CCC(=O)O[C@@H]1CC(=O)O[C@H](C)C/C=C/C=C/[C@H](O)[C@H](C)C[C@H](CC=O)[C@H](O[C@@H]2O[C@H](C)[C@@H](O[C@H]3C[C@@](C)(O)[C@@H](OC(=O)CC)[C@H](C)O3)[C@H](N(C)C)[C@H]2O)[C@H]1OC [Midecamycin] | 12.9 | -1.1 | –
C[C@]12CC[C@H](O)C[C@H]1CC[C@@H]1[C@@H]2CC[C@]2(C)[C@@H](c3ccc(=O)oc3)CC[C@]12O [Bufalin] | 19.3% | -7.6% | –
C=C(C)[C@H]1CN[C@H](C(=O)O)[C@H]1CC(=O)O [Kainic acid] | 14.3% | 2.1% | –
COc1ccc2c(c1OC)C(=O)O[C@@H]2[C@H]1c2cc3c(cc2CCN1C)OCO3 [Hydrastine] | 28.1% | -0.2% | –
O=C1C=C2C=C[C@@H]3C[C@@]2(O1)[C@@H]1CCCCN31 [Allosecurinine] | 21.3% | 19.8% | –
CC[C@@]1(O)C(=O)OCc2c1cc1n(c2=O)Cc2cc3cc(O)ccc3nc2-1 [(S)-10-Hydroxycamptothecin] | 18.7 | -0.8 | –
O=c1cc(-c2ccc(O)cc2)oc2c([C@@H]3O[C@H](CO)[C@@H](O)[C@H](O)[C@H]3O)c(O)cc(O)c12 [Vitexin] | 10.4% | 0% | –
C[C@@H]1[C@H](O)[C@@H](C)/C=C/C=C/C=C/C=C/C=C/C=C/C=C/[C@H](O[C@@H]2O[C@H](C)[C@@H](O)[C@H](N)[C@@H]2O)C[C@@H]2O[C@](O)(C[C@@H](O)C[C@@H](O)[C@H](O)CC[C@@H](O)C[C@@H](O)CC(=O)O[C@H]1C)C[C@H](O)[C@H]2C(=O)O [amphotericin B, reference compound] | – | – | below 25
C[S@@+]([O-])CCCCN=C=S [(R)-sulforaphane] | – | – | below 25
CC1=C2[C@H]3OC(=O)[C@@H](C)[C@@H]3CC[C@@]2(C)C=CC1=O [Santonin] | 22.7% | -0.5% | –
C=C(C)c1cc2cc(C(C)=O)c(O)cc2o1 [Euparin] | 14.2% | 4.4% | –
CC(C)[C@H]1OC(=O)[C@H](Cc2ccccc2)N(C)C(=O)[C@@H](C(C)C)OC(=O)[C@H](Cc2ccccc2)N(C)C(=O)[C@@H](C(C)C)OC(=O)[C@H](Cc2ccccc2)N(C)C1=O [Beauvericin] | 24.3 | -1.9 | –
CC1=C2C(=CO[C@H](C)[C@H]2C)C(O)=C(C(=O)O)C1=O [Citrinin] | 12% | -8.1% | –
CC[C@@H]1/C=C(\C)C[C@H](C)C[C@H](OC)[C@H]2O[C@@](O)(C(=O)C(=O)N3CCCC[C@H]3C(=O)O[C@H](/C(C)=C/[C@@H]3CC[C@@H](O)[C@H](OC)C3)[C@H](C)[C@@H](O)CC1=O)[C@H](C)C[C@@H]2OC [Ascomycin] | 17.9 | 12.5 | –
CN[C@H]1[C@H](O)[C@H](O[C@@H]2[C@@H](O)[C@H](O[C@H]3O[C@H](C(C)O)[C@@H](O)[C@H](O)[C@H]3N)[C@@H](N)C[C@H]2N)OC[C@@]1(C)O (some centres unmarked) [G-418 (disulfate)] | 29.4% | 4.1% | –
N#C[C@H](O[C@@H]1O[C@H](CO[C@@H]2O[C@H](CO)[C@@H](O)[C@H](O)[C@H]2O)[C@@H](O)[C@H](O)[C@H]1O)c1ccccc1 [Amygdalin] | 20.7% | 0.1% | –
